# According to patent US20260132151A1, “NOVEL N,N-DIMETHYLTRYPTAMINE (DMT) DERIVATIVES AND USES THEREOF” (priority 2022, published 2026):
# Entries after “also recorded” stand apart in the source; their conditions may differ. Like-named read-outs stand apart in the source and are kept apart here.
# Experiments:
# SERT [1] = biological target: T1, SERT (Homo sapiens, UniProt P31645); assay: Release (efflux) assay in HEK293-SERT cells loaded with [3H]5-HT; assay type: cell-based; parameters: expressed in transfected cells; conditions: Examples dissolved in HCl, DMT in DMSO, compared with pCA (full releaser)
# Protocol: (§1) Human embryonic kidney (HEK) 293 cells stably expressing human SERT were maintained in humidified atmosphere (37° C., 5% CO2) in Dulbecco's Modified Eagle Medium (DMEM), supplemented with 10% heat-inactivated fetal calf serum (FCS), streptomycin (100 μg×100 mL^−1) and penicillin (100 U×100 mL^−1). Geneticin (50 μg×mL^−1) was used as selection antibiotic.
# The day prior to the assay, stably expressing HEK293-SERT cells were seeded in a perfusion chamber of an IBIDI microfluidic chip (μ-Slide VI 0.5 Glass Bottom, ibidi GmbH). Chambers were previously coated with poly-D-lysine for 20 min at 37° C. and then cells were seeded at a density of approximately 1-10^6 cells×mL^−1.
# For the release experiment, cells were loaded with radioactive substrate […] [^3H]5-HT for 20 min at 37° C. and then perfused with different solutions at constant flow rate (0.6 μL min^−1). […] The cells were flushed using sodium dodecyl sulfate (SDS) to retrieve the residual radioactivity (6 min). […]
# Radioactivity was quantified with a beta-scintillation counter (PerkinElmer, Waltham, MA, USA). The released amount of tritiated substrate for each fraction was expressed as the amount of released tritium compared to the amount remaining in the cell at the end of the previous fraction. […]
# SERT [2] = biological target: T1, SERT; assay: Uptake inhibition assay ([3H]5-HT) in HEK293-SERT cells; assay type: cell-based; parameters: expressed in transfected cells; conditions: for IC50: HEK293-SERT cells
# Protocol: as §1
# One day before the experiment, HEK293-SERT cells were seeded onto poly-D-lysine coated 96 well plates at a density of 30,000 cells per well in a final volume of 200 μL. For uptake experiments, the cell culture medium was replaced with 300 μL Krebs-HEPES buffer (KHB; 25 mM HEPES, 120 mM NaCl, 5 mM KCl, 1.2 mM CaCl2, 1.2 mM MgSO4, and 5 mM D-glucose, pH 7.3). Then, the buffer was replaced with various concentrations of test compounds for 5 minutes; subsequent to that, 0.1 μM [^3H]5-HT in KHB was added to yield a total volume of 50 μL in the well. For determination of non-specific uptake, paroxetine was used (3 μM).
# Uptake was terminated after 60 s by washing the cells with 200 μL ice-cold KHB. Subsequently, the cells were lysed with 200 μL Ultima Gold™ XR liquid scintillation cocktail, and the amount of tritium in the cells was measured with a Wallac 1450 MicroBeta® TriLux liquid scintillation counter. Monoamine uptake data were fitted by nonlinear regression, Vmax and Km values were calculated from Michaelis Menten's least-squares fit with GraphPad Prism (Prism 9.0.2, GraphPad Software, San Diego, CA, USA).
# We tested Example 1, Example 4, Example 13 in both uptake inhibition and release assays, and Example 15 in uptake inhibition assays. Drugs were tested either as the undecomposed prodrug or after treatment with 0.5% HCl at 37° C. for 24 hours in order to simulate digestion of the prodrug by gastric acid inside the body after peroral administration. DMT was tested dissolved only in DMSO.
# SERT [3] = biological target: T1, SERT; parameters: host or cells: human platelets (endogenous SERT); conditions: read-out: uptake inhibition by DMT; human platelets expressing SERT; literature value; cited from earlier work
# [4] = assay type: physicochemical; conditions: for stability of the prodrug (in words): 1% HCl, pH 7.4 and pH 8.0 compared; for release of DMT / conversion to DMT (in words): all tested pHs: 1% HCl, pH 7.4, pH 8.0; for degradation of the prodrug: essentially instantaneous, with liberation of DMT
# Protocol: Four compounds (i.e., methyl carbamate [compound 8, Example 8], boc carbamate [compound 11, […]], pinacol boronic ester [compound 1, Example 1] and TFA-amide [compound 3, Example 3]) were tested for their stability in 1% hydrochloric acid (HCl) as well as in phosphate buffers (0.1 M) at pH 7.4 and pH 8.0, respectively. These conditions were selected to assess the chemical stability of these compounds at a pH corresponding to different physiological conditions. Dilute hydrochloric acid (pH 1) was used to mimic the low pH of gastric acid within the stomach, while potassium phosphate buffers of pH 7.4 and pH 8.0 were used to mimic conditions in human blood and small intestine, respectively.
# 4 mg of each test compound was diluted in 4 mL of either a 1% HCl solution or the respective phosphate buffer (0.1 M), resulting in a solution of 1 mg/mL each. Regarding the acidic testing with hydrochloric acid, 2 mL of aqueous test compound solutions were then added to 2 mL of 2% (v/v) in distilled water, yielding a final HCl concentration of […] (pH 0.5). Test solutions were incubated at 37° C. with constant stirring for approximately 21 hours. The concentrations of the parent compound were analyzed at different timepoints using LC/MS. The concentrations of the parent prodrug and released drug were expressed relative to the starting concentration of the parent prodrug.
# [5] = after treatment with 0.5% HCl at 37° C. for 24 hours, read-out: Uptake inhibition, IC50 values, SERT
# [6] = undecomposed compound dissolved in DMSO, no HCl pre-treatment, read-out: Uptake inhibition, IC50 values, SERT
# T1 sequence (P31645 whole entry): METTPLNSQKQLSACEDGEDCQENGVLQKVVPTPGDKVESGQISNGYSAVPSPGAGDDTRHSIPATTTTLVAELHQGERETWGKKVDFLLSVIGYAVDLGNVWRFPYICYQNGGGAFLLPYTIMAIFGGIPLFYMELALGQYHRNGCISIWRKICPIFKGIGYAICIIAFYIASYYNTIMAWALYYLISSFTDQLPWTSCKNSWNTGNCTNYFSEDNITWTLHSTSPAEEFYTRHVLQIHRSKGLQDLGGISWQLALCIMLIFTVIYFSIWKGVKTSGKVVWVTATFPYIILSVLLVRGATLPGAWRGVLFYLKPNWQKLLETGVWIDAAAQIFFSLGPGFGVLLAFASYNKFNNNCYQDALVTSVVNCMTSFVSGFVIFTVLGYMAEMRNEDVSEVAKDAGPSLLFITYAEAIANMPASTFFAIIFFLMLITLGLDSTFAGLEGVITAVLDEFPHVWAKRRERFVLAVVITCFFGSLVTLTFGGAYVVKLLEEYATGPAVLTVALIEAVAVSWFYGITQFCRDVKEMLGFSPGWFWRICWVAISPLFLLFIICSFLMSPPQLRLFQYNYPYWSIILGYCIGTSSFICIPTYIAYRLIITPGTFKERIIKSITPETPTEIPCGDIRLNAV
Structure (SMILES),IC50 (SERT [2]; [5]) [µM],IC50 (SERT [2]; [6]) [µM],stability of the prodrug (in words) [4],release of DMT / conversion to DMT (in words) ([4]; 37° C.),further results
"CN(C)CCc1c[nH]c2ccccc12 [DMT, N,N-Dimethyltryptamine]",,,,,"transporter-mediated efflux (release) via SERT (SERT [1]): almost full efficacious release; IC50 (SERT [2]; Uptake inhibition, IC50 values, SERT, undecomposed compound dissolved in DMSO, no HCl pre-treatment): 12.3 µM; IC50 (SERT [3]): ~10 µM"
"CN(C)CCc1c[nH]c2cccc(B3OC(C)(C)C(C)(C)O3)c12 [Example 1, N,N-dimethyl-2-(4-(4,4,5,5-tetramethyl-1,3,2-dioxaborolan-2-yl)-1H-indol-3-yl)ethan-1-amine]",13.6,26.7,maximum stability under acidic conditions,releasing DMT rapidly within minutes,
"CN(C)CCc1cn(C(=O)C(F)(F)F)c2ccccc12 [Example 3, 1-(3-(2-(dimethylamino)ethyl)-1H-indol-1-yl)-2,2,2-trifluoroethan-1-one]",,,maximum stability under acidic conditions,releasing DMT rapidly within minutes,"degradation of the prodrug ([4]; phosphate buffer (0.1 M) pH 7.4, 37° C.): 100%; degradation of the prodrug ([4]; phosphate buffer (0.1 M) pH 8.0, 37° C.): 100%"
"CN(C)CCc1cn(C(=O)C(C)(C)C)c2ccccc12 [Example 4, 1-(3-(2-(dimethylamino)ethyl)-1H-indol-1-yl)-2,2-dimethylpropan-1-one]",8.3,~2.1,,,transporter-mediated efflux (release) via SERT (SERT [1]): induces even less efflux; also recorded: yields a lower efflux compared to both DMT and Example 1
"COC(=O)n1cc(CCN(C)C)c2ccccc21 [Example 8, methyl 3-(2-(dimethylamino)ethyl)-1H-indole-1-carboxylate]",,,,,"release of DMT at pH 7.4 and pH 8.0 ([4]; phosphate buffers (0.1 M) pH 7.4 and pH 8.0, 37° C.): continuous release of DMT"
"CN(C)CCc1cn(C(=O)OC(C)(C)C)c2ccccc12 [Example 11, tert-butyl 3-(2-(dimethylamino)ethyl)-1H-indole-1-carboxylate]",,,significantly more stable under all tested conditions,Conversion to DMT proceeded efficiently throughout the entire experiment at all pHs,"liberation of DMT / conversion under acidic conditions ([4]; 1% HCl solution (pH 1.0), 37° C., approximately 21 hours): remarkably fast release time of two hours"
"CN(C)CCc1cn(S(=O)(=O)C2CC2)c2ccccc12 [Example 13, 2-(1-(cyclopropylsulfonyl)-1H-indol-3-yl)-N,N-dimethylethan-1-amine]",22.2,93.8,,,"interaction with the transporter without pre-treatment (in words) (SERT [2]; uptake inhibition, no HCl pre-treatment (DMSO)): interaction with the transporter was scarce"
